Laboratory results reported in PubChem BioAssay (NCI).
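Each compound was tested at five concentrations against cells in 96-well plates for 48 hours. GI50: concentration for 50% inhibition of growth. TGI marks complete inhibition of growth.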

Key:
Experiment in all cases: NCI-60 cell line screen, 48 h
SNB-19 CNS = tested on: SNB-19 CNS
MDA-MB-231 breast = tested on: MDA-MB-231 breast
MALME-3M melanoma = tested on: MALME-3M melanoma
RXF 393 renal = tested on: RXF 393 renal
SF-295 CNS = tested on: SF-295 CNS
KM12 colon = tested on: KM12 colon
NCI-H522 lung = tested on: NCI-H522 lung
SK-MEL-28 melanoma = tested on: SK-MEL-28 melanoma
OVCAR-5 ovarian = tested on: OVCAR-5 ovarian
SW-620 colon = tested on: SW-620 colon
TK-10 renal = tested on: TK-10 renal
RPMI-8226 leukemia = tested on: RPMI-8226 leukemia
NCI-H226 lung = tested on: NCI-H226 lung
DU-145 prostate = tested on: DU-145 prostate
MOLT-4 leukemia = tested on: MOLT-4 leukemia
HOP-62 NSCLC = tested on: HOP-62 NSCLC
MCF7 breast = tested on: MCF7 breast
UACC-62 melanoma = tested on: UACC-62 melanoma
COLO 205 colon = tested on: COLO 205 colon
ACHN renal = tested on: ACHN renal
EKVX NSCLC = tested on: EKVX NSCLC
NCI-H460 lung = tested on: NCI-H460 lung
SK-OV-3 ovarian = tested on: SK-OV-3 ovarian
HCT-116 colon = tested on: HCT-116 colon
K-562 leukemia = tested on: K-562 leukemia
BT-549 breast = tested on: BT-549 breast
NCI/ADR-RES ovarian = tested on: NCI/ADR-RES ovarian
SK-MEL-2 melanoma = tested on: SK-MEL-2 melanoma
NCI-H23 lung = tested on: NCI-H23 lung
CCRF-CEM leukemia = tested on: CCRF-CEM leukemia
HS 578T breast = tested on: HS 578T breast
IGROV1 ovarian = tested on: IGROV1 ovarian
HOP-92 NSCLC = tested on: HOP-92 NSCLC
U251 CNS = tested on: U251 CNS
SNB-75 CNS = tested on: SNB-75 CNS
M14 melanoma = tested on: M14 melanoma
SR leukemia = tested on: SR leukemia
SN12C renal = tested on: SN12C renal
PC-3 prostate = tested on: PC-3 prostate
HL-60(TB) leukemia = tested on: HL-60(TB) leukemia
A549 NSCLC = tested on: A549 NSCLC
MDA-MB-435 = tested on: MDA-MB-435
UO-31 renal = tested on: UO-31 renal
A498 renal = tested on: A498 renal
UACC-257 melanoma = tested on: UACC-257 melanoma
LOX IMVI melanoma = tested on: LOX IMVI melanoma
HCT-15 colon = tested on: HCT-15 colon
HCC-2998 colon = tested on: HCC-2998 colon
SK-MEL-5 melanoma = tested on: SK-MEL-5 melanoma
SF-539 CNS = tested on: SF-539 CNS
786-0 renal = tested on: 786-0 renal
SF-268 CNS = tested on: SF-268 CNS
HT29 colon = tested on: HT29 colon
T-47D breast = tested on: T-47D breast
OVCAR-4 ovarian = tested on: OVCAR-4 ovarian
CAKI-1 renal = tested on: CAKI-1 renal
OVCAR-8 ovarian = tested on: OVCAR-8 ovarian

O=C(O)c1ccc(-n2c(=O)n(-c3cccc(C(F)(F)F)c3)c(=O)c3cc(-c4ccc(F)cc4F)ccc32)cc1
GI50 (SNB-19 CNS): 2.03 µM | TGI (SNB-19 CNS): 31.1 µM | GI50 (MDA-MB-231 breast): 2.18 µM | TGI (MDA-MB-231 breast): 6.71 µM | GI50 (MALME-3M melanoma): 1.78 µM | TGI (MALME-3M melanoma): 5.42 µM | GI50 (RXF 393 renal): 1.48 µM | TGI (RXF 393 renal): 3.47 µM | GI50 (SF-295 CNS): 1.82 µM | TGI (SF-295 CNS): 3.82 µM | GI50 (KM12 colon): 2.59 µM | TGI (KM12 colon): 7.49 µM | GI50 (NCI-H522 lung): 0.576 µM | TGI (NCI-H522 lung): 3.98 µM | GI50 (SK-MEL-28 melanoma): 1.85 µM | TGI (SK-MEL-28 melanoma): 6.79 µM | GI50 (OVCAR-5 ovarian): 3.61 µM | TGI (OVCAR-5 ovarian): 28.5 µM | GI50 (SW-620 colon): 2.03 µM | TGI (SW-620 colon): 4.96 µM | GI50 (TK-10 renal): 3.86 µM | TGI (TK-10 renal): 8.4 µM | GI50 (RPMI-8226 leukemia): 1.7 µM | TGI (RPMI-8226 leukemia): 7.05 µM | GI50 (NCI-H226 lung): 1.72 µM | TGI (NCI-H226 lung): 4.8 µM | GI50 (DU-145 prostate): 3.37 µM | TGI (DU-145 prostate): 14.2 µM | GI50 (MOLT-4 leukemia): 1.44 µM | TGI (MOLT-4 leukemia): 6.16 µM | GI50 (HOP-62 NSCLC): 2.04 µM | TGI (HOP-62 NSCLC): 4.66 µM | GI50 (MCF7 breast): 2 µM | TGI (MCF7 breast): 9.29 µM | GI50 (UACC-62 melanoma): 0.582 µM | TGI (UACC-62 melanoma): 2.51 µM | GI50 (COLO 205 colon): 2.85 µM | TGI (COLO 205 colon): 7.41 µM | GI50 (ACHN renal): 2.67 µM | TGI (ACHN renal): 10.6 µM | GI50 (EKVX NSCLC): 2.53 µM | TGI (EKVX NSCLC): 8.53 µM | GI50 (NCI-H460 lung): 1.58 µM | TGI (NCI-H460 lung): 8.21 µM | GI50 (SK-OV-3 ovarian): 1.45 µM | TGI (SK-OV-3 ovarian): 4.12 µM | GI50 (HCT-116 colon): 1.1 µM | TGI (HCT-116 colon): 2.39 µM | GI50 (K-562 leukemia): 0.335 µM | TGI (K-562 leukemia): 7.74 µM | GI50 (BT-549 breast): 1.54 µM | TGI (BT-549 breast): 3.11 µM | GI50 (NCI/ADR-RES ovarian): 2.63 µM | TGI (NCI/ADR-RES ovarian): 15.2 µM | GI50 (SK-MEL-2 melanoma): 1.04 µM | TGI (SK-MEL-2 melanoma): 2.91 µM | GI50 (NCI-H23 lung): 1.56 µM | TGI (NCI-H23 lung): 5.88 µM | GI50 (CCRF-CEM leukemia): 3.32 µM | TGI (CCRF-CEM leukemia): 20.9 µM | GI50 (HS 578T breast): 2.12 µM | TGI (HS 578T breast): 6.98 µM | GI50 (IGROV1 ovarian): 2.91 µM | TGI (IGROV1 ovarian): 20.5 µM | GI50 (HOP-92 NSCLC): 0.525 µM | TGI (HOP-92 NSCLC): 3.54 µM | GI50 (U251 CNS): 2.06 µM | TGI (U251 CNS): 10.7 µM | GI50 (SNB-75 CNS): 1.93 µM | TGI (SNB-75 CNS): 7.02 µM | GI50 (M14 melanoma): 1.58 µM | TGI (M14 melanoma): 3.72 µM | GI50 (SR leukemia): 0.555 µM | TGI (SR leukemia): 4.07 µM | GI50 (SN12C renal): 1.91 µM | TGI (SN12C renal): 8.29 µM | GI50 (PC-3 prostate): 2.86 µM | TGI (PC-3 prostate): 8.76 µM | GI50 (HL-60(TB) leukemia): 0.323 µM | TGI (HL-60(TB) leukemia): 11.1 µM | GI50 (A549 NSCLC): 2.96 µM | TGI (A549 NSCLC): 13.5 µM | GI50 (MDA-MB-435): 2.31 µM | TGI (MDA-MB-435): 7.62 µM | GI50 (UO-31 renal): 2.54 µM | TGI (UO-31 renal): 9.57 µM | GI50 (A498 renal): 0.524 µM | TGI (A498 renal): 1.87 µM | GI50 (UACC-257 melanoma): 1.6 µM | TGI (UACC-257 melanoma): 4.96 µM | GI50 (LOX IMVI melanoma): 1.73 µM | TGI (LOX IMVI melanoma): 3.53 µM | GI50 (HCT-15 colon): 1.04 µM | TGI (HCT-15 colon): 3 µM | GI50 (HCC-2998 colon): 3.03 µM | TGI (HCC-2998 colon): 9.71 µM | GI50 (SK-MEL-5 melanoma): 0.49 µM | TGI (SK-MEL-5 melanoma): 1.88 µM | GI50 (SF-539 CNS): 2.2 µM | TGI (SF-539 CNS): 8.17 µM | GI50 (786-0 renal): 1.83 µM | TGI (786-0 renal): 3.63 µM | GI50 (SF-268 CNS): 2.37 µM | TGI (SF-268 CNS): 15 µM | GI50 (HT29 colon): 3.58 µM | TGI (HT29 colon): 13.7 µM | GI50 (T-47D breast): 1.79 µM | TGI (T-47D breast): 6.21 µM | GI50 (OVCAR-4 ovarian): 2.82 µM | TGI (OVCAR-4 ovarian): 35 µM | GI50 (CAKI-1 renal): 2.11 µM | TGI (CAKI-1 renal): 6.96 µM | GI50 (OVCAR-8 ovarian): 2.03 µM | TGI (OVCAR-8 ovarian): 8.43 µM
